Measurements as given in patent US20250000836A1, “PARTICLE DELIVERY OF THYROID HORMONE RECEPTOR AGONISTS AND ANTAGONISTS” (CYTA THERAPEUTICS, INC., priority 2021, published 2025).
Marks after values point to notes of the source that are not given here.

Assays:
[1] = tested on: HFD-induced NASH (mild NASH model), male C57BL/6J mice; experiment: Serum biochemical analysis, mild NASH model (12 week HFD prior to dosing); format: in vivo; settings: for ALT / AST / Cholesterol / HDL Cholesterol / LDL Cholesterol / Triglycerides: serum, 12 week HFD prior to dosing, 5 weeks, mean ± SE
Procedure: (§1) All animal care and experimental procedures were approved by the Ethical Committee on Animal Care and Experimentation. Male C57BL/6J mice were purchased at 6 weeks of age from the Jackson Laboratory and housed in a controlled environment (12 h light/dark cycle, 21±2° C., humidity 50±10%). Mice were permitted ad libitum access to water and either 10 kcal % fat control diet (CD, Cat #D09100304, Research Diets) or 40 kcal % fat, 20 kcal % fructose and 2% cholesterol high fat diet (HFD, Cat #D09100310, Research Diets).
To test the preventative effect of CGS-ANG in treating HFD-induced NASH, mice were fed high fat diet (HFD) or low fat diet (CD) for 12 weeks (mild NASH model) and then randomly assigned to 9 groups with 8-10 mice per group before treatment: (1), CD: mice fed the CD diet and treated with vehicle; (2), HFD: mice fed the HFD diet and treated with vehicle; (3), CGS-D1: mice fed the HFD diet and treated with 10 μg/kg of CGS26214 (suspended in saline with 1% DMSO); (4), CGS-D2: mice fed the HFD diet and treated with 20 μg/kg of CGS26214; (5) CGS-D3: mice fed the HFD diet and treated with 60 μg/kg of CGS26214; (6) CNG-D1: mice fed the HFD diet and treated with CGS-ANG loaded with CGS26214 at a dose of 10 μg/kg; (7) CNG-D2: mice fed the HFD diet and treated with CGS-ANG loaded with CGS26214 at a dose of 20 μg/kg; (8) CNG-D3: mice fed the HFD diet and treated with CGS-ANG loaded with CGS 26214 at a dose of 60 μg/kg; (9) BNG: mice fed the HFD diet and treated with BNG with the same dose of nanogels with group (8). All the treatments were injected intraperitoneally at the doses indicated once per day before the dark cycle of the day for 5 weeks.
(§2) After each designated treatment period, all the mice were sacrificed unfasted by cardiac puncture after gradual-fill CO2 asphyxiation. Terminal blood samples were collected in SST-SERUM separator tubes for serum collection. Epididymal fat pads (EFP), liver and hearts were removed and weighed. Data (weight gain, liver weight, heart weight, epididymal fat pad weight) from the 12 week and 24 week study are shown in FIGS. 3A-3D and 4A-4D, respectively. Portions of livers and hearts were collected and stored at −80° C. or fixed in 4% paraformaldehyde solution (Sigma-Aldrich, St. Louis, MO) for further analysis. Visual images of mice from each treatment groups at 24 weeks is shown in FIG. 5 while images of mice liver from each treatment group at 24 weeks is shown in FIG. 6.
(§3) Analysis of serum cholesterol (TC), high-density lipoprotein cholesterol (HDL-C), low-density lipoprotein cholesterol (LDL-C), triglycerides (TG), serum alanine aminotransferase (ALT) and aspartate aminotransferase (AST) was performed at Indexx BioAnalytics (North Grafton, MA) Plasma glucose, insulin, amyloid A (SAA), E-selectin and monocyte chemoattractant protein-1 (MCP-1) were quantified using commercial kits. Data from the 12 week and 24 week study are shown in Table 2 and Table 3, respectively.

[2] = tested on: HFD-induced NASH (fully developed NASH model), male C57BL/6J mice; experiment: Serum biochemical analysis, fully developed NASH model (24 week HFD prior to dosing); format: in vivo; settings: 5 weeks, mean ± SE
Procedure: as §1
(§4) To test the therapeutic effect of CGS-ANG in treating HFD-induced NASH, mice were fed HFD or LFD for 24 weeks (fully developed NASH model) and then randomly assigned to 9 groups with 8-10 mice per group before the medical treatments: (1), CD: mice fed the CD diet and treated with vehicle; (2), HFD: mice fed the HFD diet and treated with vehicle; (3), CGS-D1: mice fed the HFD diet and treated with 5 μg/kg of CGS26214; (4), CGS-D2: mice fed the HFD diet and treated with 10 μg/kg of CGS26214; (5) CGS-D3: mice fed the HFD diet and treated with 20 μg/kg of CGS 26214; (6) CNG-D1: mice fed the HFD diet and treated with CGS-ANG loaded with CGS26214 at a dose of 5 μg/kg; (7) CNG-D2: mice fed the HFD diet and treated with CGS-ANG loaded with CGS 26214 at a dose of 10 μg/kg; (8) CNG-D3: mice fed the HFD diet and treated with CGS-ANG loaded with CGS 26214 at a dose of 20 μg/kg; (9) BNG: mice fed the HFD diet and treated with BNG with the same dose of nanogels as group (8). All the treatments were injected intraperitoneally at the doses indicated once per day before the dark cycle of the day for 5 weeks.
as §2, §3

[3] = Body weight and liver weight in the 12 week and 24 week HFD NASH models; format: in vivo, mice; settings: the two models (12 week and 24 week HFD), i.p. once per day, 5 weeks
Procedure: All animal care and experimental procedures were approved by the Ethical Committee on Animal Care and Experimentation. Male C57BL/6J mice were purchased at 6 weeks of age from the Jackson Laboratory and housed in a controlled environment (12 h light/dark cycle, 21±2° C., humidity 50±10%). Mice were permitted ad libitum access to water and either 10 kcal % fat control diet (CD, Cat #D09100304, Research Diets) or 40 kcal % fat, 20 kcal % fructose and 2% cholesterol high fat diet (HFD, Cat #D09100310, Research Diets). […]
Body weight and food intake per cage were measured regularly during the study. […]

[4] = tested on: HFD-induced NASH, mouse liver; experiment: Liver histology (H&E, Masson's trichrome), 24 week study; format: in vivo, mice; settings: groups CGS-2 / CNG-2 (10 μg/kg CGS26214 i.p. once per day, 5 weeks)
Procedure: as §4, with “weeks. […]” for “weeks.”

[5] = tested on: Diet Induced Obese (DIO) mice; experiment: In vivo serum T4 and TSH analysis in Diet Induced Obese mice; settings: 5, 10 or 20 μg/kg, 12-week and 24-week timepoints, compared to lean control and high fat control
Procedure: A Diet Induced Obese (DIO) mouse model was used to study the in vivo effects of the CGS26214-encapsulated nanogels with anionic group-modified backbone (CGS-ANG), referred to as “CYTA-001,” on serum T4 and TSH within the context of obesity.
The DIO mice were treated with either the non-liver targeted TRβ agonist, Axitirome (CGS26214), also referred to as “drug” in FIGS. 10A and B, or CYTA-001 at 5 μg/kg, 10 μg/kg, or 20 μg/kg for 12 weeks or 24 weeks. Treated DIO mice serum T4/TSH levels were compared to a lean control (LC control), or low fat diet, and to a high fat control (HF control). After each designated treatment period, all the mice were sacrificed unfasted by cardiac puncture after gradual-fill CO2 asphyxiation. Terminal blood samples were collected in SST-SERUM separator tubes for serum collection.
Serum was analyzed for thyroid hormone T4 and thyroid stimulating hormone (TSH) levels. […] This is an unexpected result as thyromimetics have not been observed for weight loss without some level of peripheral activation of the TRα or TRβ receptor. Peripheral activation of the TRα receptor is generally toxic and ideally avoided.

[6] = tested on: Diet Induced Obese (DIO) mice; experiment: In vivo insulin resistance analysis (HOMA-IR) in DIO mice; settings: 24 weeks HFD then 5-week dosing at 5, 10 or 20 μg/kg
Procedure: DIO mice were used to study the in vivo effects of CYTA-001 on insulin resistance within the context of obesity and diet. Homeostatic model assessment for insulin resistance (HOMA-IR) levels were measured in DIO mice that were conditioned on high fat diets (HFD) for 24 weeks prior to a 5-week dosing regimen. The HFD DIO mice were treated with either the non-liver targeted TRβ agonist, Axitirome (CGS26214), also referred to as “drug” in FIG. 11, or CYTA-001 at 5 μg/kg, 10 μg/kg, or 20 μg/kg dosages for 5 weeks.

[7] = 10 μg/kg CGS26214 i.p. once per day
[8] = 20 μg/kg CGS26214 i.p. once per day
[9] = 60 μg/kg CGS26214 i.p. once per day
[10] = 5 μg/kg CGS26214 i.p. once per day

CCOC(=O)C(=O)Nc1cc(C)c(Oc2ccc(O)c(C(O)c3ccc(F)cc3)c2)c(C)c1 (racemic) [CGS26214, ethyl (+−)-((4-(3-((4-fluorophenyl)hydroxymethyl)-4-hydroxyphenoxy)-3,5-dimethylphenyl)amino)oxoacetate]
ALT [1, 7]: 196 ± 26 | AST [1, 7]: 205 ± 27 | Cholesterol [1, 7]: 158.2 ± 19.2 mg/dL | HDL Cholesterol [1, 7]: 87.2 ± 9.6 mg/dL | LDL Cholesterol [1, 7]: <7 mg/dL | Triglycerides [1, 7]: 87.6 ± 3.5 mg/dL | ALT [1, 8]: 217 ± 28 | AST [1, 8]: 252 ± 47 | Cholesterol [1, 8]: 155.8 ± 11.8 mg/dL | HDL Cholesterol [1, 8]: 76.8 ± 5.8 mg/dL | LDL Cholesterol [1, 8]: <7 mg/dL | Triglycerides [1, 8]: 83.5 ± 10 mg/dL | ALT [1, 9]: 279 ± 68 | AST [1, 9]: 303 ± 49 | Cholesterol [1, 9]: 105.5 ± 23.7 mg/dL | HDL Cholesterol [1, 9]: 53.1 ± 10.8 mg/dL | LDL Cholesterol [1, 9]: <7 mg/dL | Triglycerides [1, 9]: 78.7 ± 7.2 mg/dL | reversing or preventing changes in biochemical markers induced by the high-fat diet ([1]; summary of Tables 2 and 3 (12 week and 24 week models), compared with LC control): much less effective | ALT [2, 10]: 276 ± 20^d | AST [2, 10]: 319 ± 15^ceg | Cholesterol [2, 10]: 278.9 ± 20.2^cef mg/dL | LDL Cholesterol [2, 10]: 18.4 ± 2.3 mg/dL | ALT [2, 7]: 257 ± 20^cd | Cholesterol [2, 7]: 236.8 ± 16.6^cd mg/dL | HDL Cholesterol [2, 7]: 113.4 ± 5.5^ab mg/dL | LDL Cholesterol [2, 7]: 15.3 ± 1.1 mg/dL | Triglycerides [2, 7]: 94.7 ± 9.5^cdf mg/dL | ALT [2, 8]: 225 ± 10^cd | AST [2, 8]: 247 ± 17^de | Cholesterol [2, 8]: 196.9 ± 10.2^ade mg/dL | HDL Cholesterol [2, 8]: 96.3 ± 3.9^ac mg/dL | LDL Cholesterol [2, 8]: 11.4 ± 1.2 mg/dL | Triglycerides [2, 8]: 90.3 ± 5.7^ad mg/dL | effects on body weight [3]: only moderate effects | effects on liver weight [3]: only moderate effects | fibrosis and collagen deposition (Masson's trichrome staining) [4]: show signs of fibrosis and collagenous tissue fiber formation | steatosis, inflammation and ballooning degeneration (hematoxylin-eosin staining) [4]: show macrovesicular and microvesicular steatosis, inflammation, and ballooning degeneration | change in serum TSH [5]: statistically significant change | insulin resistance (HOMA-IR) [6]: not observed to produce a significant effect
